Like-named read-outs stand apart in the source and are kept apart here.
Experiments:
[1] = test system: WAGA cells (VP-MCC); assay: qHTS cell viability (CellTiter-Glo, 72 h; primary and follow-up small molecule screen); type: cell-based, human; conditions: WAGA
[2] = test system: VP-MCC cell lines (WAGA, MKL-1, MKL-2); assay: qHTS cell viability, VP-MCC cell lines as a group (mean AUC, VP.MCC.avg); type: cell-based, human; conditions: small molecule screen
[3] = test system: MKL-1 (VP-MCC) xenograft tumors; set-up: method as in PMID 22572880; conditions: prior report; cited from earlier work
[4] = test system: MCC13 cells (VN-MCC); assay: qHTS cell viability (CellTiter-Glo, 72 h; primary and follow-up small molecule screen); type: cell-based, human
[5] = test system: MKL-2 cells (VP-MCC); assay: as above; type: cell-based, human
[6] = qHTS cell viability (CellTiter-Glo, 72 h; primary screen), control cell line; type: cell-based; conditions: human, read-out: Percent viability
[7] = as above; type: cell-based, human; conditions: human, HACAT, read-out: Percent viability
[8] = test system: MKL-1 cells (VP-MCC); assay: qHTS cell viability (CellTiter-Glo, 72 h; primary and follow-up small molecule screen); type: cell-based, human
[9] = qHTS cell viability (CellTiter-Glo, 72 h; primary screen), control cell line; type: cell-based, human; conditions: human, HEK293T, read-out: Percent viability
[10] = test system: MCC26 cells (VN-MCC); assay: qHTS cell viability (CellTiter-Glo, 72 h; primary and follow-up small molecule screen); type: cell-based, human
[11] = test system: UISO cells (VN-MCC); assay: as above; type: cell-based, human; conditions: UISO

## COCCn1c2c([n+](Cc3cnccn3)c1C)C(=O)c1ccccc1C2=O [sepantronium bromide, reference compound]
[1]; Log (M) -4.33646
  Percent viability: 2.2%
[1]; Log (M) -4.81358
  Percent viability: 2.7%
[1]; Log (M) -5.2907
  Percent viability: 3.2%
[1]; Log (M) -5.76782
  Percent viability: 3.6%
[1]; Log (M) -6.24494
  Percent viability: 3.4%
[1]; Log (M) -6.72207
  Percent viability: 4.1%
[1]; Log (M) -7.19919
  Percent viability: 5.7%
[1]; Log (M) -7.67631
  Percent viability: 15.6%
[1]; Log (M) -8.15343
  Percent viability: 103.1%
[1]; Log (M) -8.63055
  Percent viability: 106.2%
[1]; Log (M) -9.10767
  Percent viability: 107.0%
[2]
  viability of VP-MCC (in words): potent compound for inhibiting the viability of VP-MCC
[3]
  growth of MKL-1 (VP-MCC) xenograft tumors (in words): slowed the growth of MKL-1 (VP-MCC) xenograft tumors
[4]; MCC-13, Log (M) -4.33646
  Percent viability: 8.9%
[4]; MCC-13, Log (M) -4.81358
  Percent viability: 6.8%
[4]; MCC-13, Log (M) -5.2907
  Percent viability: 19.3%
[4]; MCC-13, Log (M) -5.76782
  Percent viability: 19.0%
[4]; MCC-13, Log (M) -6.24494
  Percent viability: 57.5%
[4]; MCC-13, Log (M) -6.72207
  Percent viability: 89.4%
[4]; MCC-13, Log (M) -7.19919
  Percent viability: 92.8%
[4]; MCC-13, Log (M) -7.67631
  Percent viability: 105.1%
[4]; MCC-13, Log (M) -8.15343
  Percent viability: 92.1%
[4]; MCC-13, Log (M) -8.63055
  Percent viability: 110.1%
[4]; MCC-13, Log (M) -9.10767
  Percent viability: 104.4%
[5]; MKL2, Log (M) -4.33646
  Percent viability: 5.0%
[5]; MKL2, Log (M) -4.81358
  Percent viability: 6.0%
[5]; MKL2, Log (M) -5.2907
  Percent viability: 6.6%
[5]; MKL2, Log (M) -5.76782
  Percent viability: 7.9%
[5]; MKL2, Log (M) -6.24494
  Percent viability: 7.7%
[5]; MKL2, Log (M) -6.72207
  Percent viability: 7.4%
[5]; MKL2, Log (M) -7.19919
  Percent viability: 9.2%
[5]; MKL2, Log (M) -7.67631
  Percent viability: 27.9%
[5]; MKL2, Log (M) -8.15343
  Percent viability: 100.0%
[5]; MKL2, Log (M) -8.63055
  Percent viability: 100.0%
[5]; MKL2, Log (M) -9.10767
  Percent viability: 102.5%
[6]; CRL-7250 cells (control cell line), CRL-7250, Log (M) -4.33646
  viability at 72 h, 46.1 µM: -4.6%
[6]; CRL-7250 cells (control cell line), CRL-7250, Log (M) -4.81358
  viability at 72 h, 15.4 µM: 10.1%
[6]; CRL-7250 cells (control cell line), CRL-7250, Log (M) -5.2907
  viability at 72 h, 5.12 µM: -5.4%
[6]; CRL-7250 cells (control cell line), CRL-7250, Log (M) -5.76782
  viability at 72 h, 1.71 µM: -4.8%
[6]; CRL-7250 cells (control cell line), CRL-7250, Log (M) -6.24494
  viability at 72 h, 569 nM: -8.6%
[6]; CRL-7250 cells (control cell line), CRL-7250, Log (M) -6.72207
  viability at 72 h, 190 nM: 39.2%
[6]; CRL-7250 cells (control cell line), CRL-7250, Log (M) -7.19919
  viability at 72 h, 63.2 nM: 65.6%
[6]; CRL-7250 cells, CRL-7250, Log (M) -7.67631
  viability at 72 h, 21.1 nM: 101%
[6]; CRL-7250 cells, CRL-7250, Log (M) -8.63055
  viability at 72 h, 2.34 nM: 100%
[7]; HACAT cells (control cell line), Log (M) -4.81358
  viability at 72 h, 15.4 µM: 21.2%
[7]; HACAT cells (control cell line), Log (M) -5.2907
  viability at 72 h, 5.12 µM: 18.9%
[7]; HACAT cells (control cell line), Log (M) -5.76782
  viability at 72 h, 1.71 µM: 48.7%
[7]; HACAT cells (control cell line), Log (M) -6.24494
  viability at 72 h, 0.569 µM: 44.2%
[7]; HACAT cells (control cell line), Log (M) -6.72207
  viability at 72 h, 190 nM: 35.1%
[7]; HACAT cells (control cell line), Log (M) -7.19919
  viability at 72 h, 63.2 nM: 66.6%
[7]; HACAT cells, Log (M) -4.33646
  viability at 72 h, 46.1 µM: 21.2%
[7]; HACAT cells, Log (M) -7.67631
  viability at 72 h, 21.1 nM: 100%
[7]; HACAT cells, Log (M) -8.15343
  viability at 72 h, 7.02 nM: 98.2%
[7]; HACAT cells, Log (M) -8.63055
  viability at 72 h, 2.34 nM: 88.9%
[7]; HACAT cells, Log (M) -9.10767
  viability at 72 h, 0.78 nM: 104%
[8]; MKL1, Log (M) -4.33646
  Percent viability: 4.1%
[8]; MKL1, Log (M) -4.81358
  Percent viability: 5.1%
[8]; MKL1, Log (M) -5.2907
  Percent viability: 6.0%
[8]; MKL1, Log (M) -5.76782
  Percent viability: 6.5%
[8]; MKL1, Log (M) -6.24494
  Percent viability: 8.2%
[8]; MKL1, Log (M) -6.72207
  Percent viability: 7.5%
[8]; MKL1, Log (M) -7.19919
  Percent viability: 7.7%
[8]; MKL1, Log (M) -7.67631
  Percent viability: 8.0%
[8]; MKL1, Log (M) -8.15343
  Percent viability: 17.1%
[8]; MKL1, Log (M) -8.63055
  Percent viability: 55.6%
[8]; MKL1, Log (M) -9.10767
  Percent viability: 97.8%
[9]; HEK293T cells (control cell line), Log (M) -4.81358
  viability at 72 h, 15.4 µM: 1%
[9]; HEK293T cells (control cell line), Log (M) -5.2907
  viability at 72 h, 5.12 µM: -4.1%
[9]; HEK293T cells (control cell line), Log (M) -5.76782
  viability at 72 h, 1.71 µM: -3.3%
[9]; HEK293T cells (control cell line), Log (M) -7.19919
  viability at 72 h, 63.2 nM: -1.7%
[9]; HEK293T cells, Log (M) -4.33646
  viability at 72 h, 46.1 µM: -1.2%
[9]; HEK293T cells, Log (M) -7.67631
  viability at 72 h, 21.1 nM: 23.3%
[9]; HEK293T cells, Log (M) -8.15343
  viability at 72 h, 7.02 nM: 104%
[9]; HEK293T cells, Log (M) -8.63055
  viability at 72 h, 2.34 nM: 100%
[9]; HEK293T cells, Log (M) -9.10767
  viability at 72 h, 0.78 nM: 100%
[10]; MCC-26, Log (M) -4.33646
  Percent viability: 12.7%
[10]; MCC-26, Log (M) -4.81358
  Percent viability: 14.1%
[10]; MCC-26, Log (M) -5.2907
  Percent viability: 15.5%
[10]; MCC-26, Log (M) -5.76782
  Percent viability: 13.0%
[10]; MCC-26, Log (M) -6.24494
  Percent viability: 32.6%
[10]; MCC-26, Log (M) -6.72207
  Percent viability: 74.3%
[10]; MCC-26, Log (M) -7.19919
  Percent viability: 94.8%
[10]; MCC-26, Log (M) -7.67631
  Percent viability: 100.8%
[10]; MCC-26, Log (M) -8.15343
  Percent viability: 100.6%
[10]; MCC-26, Log (M) -8.63055
  Percent viability: 101.9%
[10]; MCC-26, Log (M) -9.10767
  Percent viability: 102.7%
[11]; Log (M) -4.33646
  Percent viability: 1.7%
[11]; Log (M) -4.81358
  Percent viability: -3.1%
[11]; Log (M) -5.76782
  Percent viability: 0.3%
[11]; Log (M) -6.24494
  Percent viability: -7.3%
[11]; Log (M) -6.72207
  Percent viability: -3.8%
[11]; Log (M) -7.19919
  Percent viability: 3.4%
[11]; Log (M) -7.67631
  Percent viability: 44.8%
[11]; Log (M) -8.15343
  Percent viability: 99.6%
[11]; Log (M) -8.63055
  Percent viability: 102.4%
[11]; Log (M) -9.10767
  Percent viability: 104.0%

— article PMC11822212, “High-throughput screening identifies Aurora kinase B as a critical therapeutic target for Merkel cell carcinoma” (Nature Communications, 2025)
